The compounds below were run against T1, human mGlu2 (Homo sapiens, UniProt Q14416) (assay: mGlu GIRK cell-based thallium flux assay, human mGlu2). Details: HEK-293 cells co-expressing human mGlu2 and GIRK, EC80 glutamate, single experiment.
T1 construct: expressed in transfected cells; host or cells: HEK-293 stably co-expressing GIRK channels
Protocol: Human embryonic kidney (HEK-293) cell lines stably co-expressing human or rat mGlu2 and G protein-coupled inwardly rectifying potassium (GIRK) channels, or human mGlu3 and GIRK, were used for in vitro evaluation of compound activity in thallium flux assay using a fluorescent thallium indicator dye.
The day before the assay, GIRK cells co-expressing human mGlu3, human or rat mGlu2, as described above, were plated in black-walled, clear-bottomed, amine-coated 384-well plates at a density of 15,000 cells/[…]/well in the assay medium (glutamine-depleted basal DMEM supplemented with 10% dialyzed FBS, 20 mM HEPES, 1 mM sodium pyruvate). Cells were incubated at 37° C. in the presence of 5% CO2. The next day, assay buffer (Hanks balanced salt solution, 20 mM HEPES, 4.16 mM sodium bicarbonate, pH 7.2) was prepared to dilute compounds and Thallos AM fluorescent dye solution. The 2× Thallos dye solution (final concentration 0.34 μM to the cells) was prepared by mixing the dye stock (2.97 mM in DMSO) to 1:1 with 10% pluronic acid before adding to the assay buffer. Cells were washed with assay buffer using a microplate washer to remove the medium, resulting in 20 μL of buffer remaining in each well. […] During the cell dye loading incubation period, a 10-point concentration serial dilution of compound was created from a 10 mM DMSO compound stock by performing a 1:3 serial dilution in DMSO using the Bravo liquid handler. The 2× compound plate was generated by transferring 0.24 μL of the diluted compound in each well to a daughter plate using an Echo acoustic liquid handler. This is further diluted in 40 μL assay buffer, resulting in a range from […] to 1.5 nM final concentration in the assay. The agonist plate (5×) was prepared to include EC80 glutamate concentration (a concentration to elicit 80% of a maximally effective glutamate concentration) in thallium buffer (125 mM sodium bicarbonate, 1 mM magnesium sulfate, 1.8 mM calcium sulfate, 5 mM glucose, 10 mM HEPES, pH 7.2, 12.5 mM thallium sulfate).
After dye-loading, cell plates were washed with assay buffer to remove excess extracellular dye using a microplate washer, resulting in 20 μL of buffer remaining in each well. After a ten-minute equilibration period, cell, compound and agonist plates were loaded into a Hamamatsu μCell kinetic imaging plate reader equipped with liquid handler to monitor fluorescence changes at 480 nm excitation and 540 nm emission settings. Briefly, after collection of baseline fluorescence, 20 μL of compound was added and incubated for two minutes and twenty seconds. This is immediately followed by adding 10 μL of glutamate-thallium buffer to the wells containing compound. The fluorescent signal was monitored an additional 2.5 minutes after the glutamate addition. Multiple reference wells containing no compound received either no glutamate (for a baseline reference), EC80 glutamate, or ECmax glutamate (for normalization to maximum response). […] Each compound concentration series occurred one time in each plate, and replicates from two or three plates were used in each experimental run. Thallium solutions were handled and disposed of according to guidelines from the Vanderbilt University Chemical Safety department.
Data were normalized using a static ratio function (F/F0) by dividing every fluorescent measurement by the initial fluorescent value for the corresponding well. The increase in signal resulting from the glutamate/thallium addition of the second add was measured by determining the slope from 3 seconds to 13 seconds after the addition. The average of all baseline slopes (no compound, no glutamate) was determined and this value was subtracted from all other slope values. The average of all ECmax slopes was determined and this value was used to normalize the baseline-corrected slopes to a percent max value (% Emax).

T1 sequence (Q14416 19-872): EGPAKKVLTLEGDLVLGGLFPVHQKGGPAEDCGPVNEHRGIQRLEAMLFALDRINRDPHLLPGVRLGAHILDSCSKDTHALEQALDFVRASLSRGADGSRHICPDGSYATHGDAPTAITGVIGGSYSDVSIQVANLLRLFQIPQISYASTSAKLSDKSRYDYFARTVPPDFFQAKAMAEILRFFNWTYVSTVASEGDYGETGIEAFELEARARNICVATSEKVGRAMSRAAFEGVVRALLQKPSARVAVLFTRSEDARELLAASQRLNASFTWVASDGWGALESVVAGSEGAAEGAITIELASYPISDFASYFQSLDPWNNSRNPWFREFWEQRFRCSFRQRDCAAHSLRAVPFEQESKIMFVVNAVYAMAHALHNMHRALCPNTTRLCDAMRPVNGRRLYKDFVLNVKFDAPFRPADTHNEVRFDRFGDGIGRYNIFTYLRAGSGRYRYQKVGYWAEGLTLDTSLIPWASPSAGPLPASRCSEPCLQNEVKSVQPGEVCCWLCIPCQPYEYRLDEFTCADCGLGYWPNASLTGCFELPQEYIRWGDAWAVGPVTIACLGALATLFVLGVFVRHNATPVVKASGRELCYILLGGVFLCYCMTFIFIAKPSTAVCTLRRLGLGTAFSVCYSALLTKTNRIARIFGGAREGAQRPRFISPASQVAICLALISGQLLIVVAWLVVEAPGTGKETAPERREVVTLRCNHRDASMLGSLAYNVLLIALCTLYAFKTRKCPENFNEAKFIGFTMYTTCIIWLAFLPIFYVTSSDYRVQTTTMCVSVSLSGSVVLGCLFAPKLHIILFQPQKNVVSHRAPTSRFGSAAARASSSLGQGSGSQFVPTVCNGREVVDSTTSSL

| IC50 | Human mGlu2 GIRK IC50 (nM) | SMILES |
| --- | --- | --- |
| > 10000 nM |  | CCOc1ccc(-c2cc3c(c(-c4cnsc4)c2)CNC3=O)c(F)c1F [Compound 54, 6-(4-ethoxy-2,3-difluorophenyl)-4-(isothiazol-4-yl)isoindolin-1-one] |
| > 10000 nM |  | Cc1cc(-c2cc3c(c(-c4cnsc4)c2)CNC3=O)c(F)cc1F [Compound 50, 6-(2,4-difluoro-5-methylphenyl)-4-(isothiazol-4-yl)isoindolin-1-one] |
| > 10000 nM |  | O=C1NCc2c1cc(-c1cc(F)c(F)c(F)c1)cc2-c1cnsc1 [Compound 59, 4-(isothiazol-4-yl)-6-(3,4,5-trifluorophenyl)isoindolin-1-one] |
| 286 nM |  | O=C1CC2(CN1)CN(c1cc(-c3ccc(F)cc3F)cc3c1CNC3=O)C2 [Compound A20, 6-(2,4-difluorophenyl)-4-(7-oxo-2,6-diazaspiro[3.4]octan-2-yl)isoindolin-1-one] |
| 3310 nM |  | O=C1NCc2c1cc(-c1ccc(F)cc1F)cc2-c1cnc2ccccc2c1 [Compound 25, 6-(2,4-difluorophenyl)-4-(quinolin-3-yl)isoindolin-1-one] |
| > 10000 nM |  | O=C1NCc2c1cc(-c1ccc(F)cc1F)cc2-c1cnn(C(F)F)c1 [Compound 8, 4-(1-(difluoromethyl)-1H-pyrazol-4-yl)-6-(2,4-difluorophenyl)isoindolin-1-one] |
| 303 nM |  | O=C1NCc2c1cc(-c1ccc(F)cc1F)cc2-c1ccnc(C(F)(F)F)c1 [Compound 90, 6-(2,4-difluorophenyl)-4-(2-(trifluoromethyl)pyridin-4-yl)isoindolin-1-one] |
|  | Inactive | O=C1NCc2c1cc(-c1ccc(F)cc1F)cc2-c1cc2ccccc2s1 [Compound 28, 4-(benzo[b]thiophen-2-yl)-6-(2,4-difluorophenyl)isoindolin-1-one] |
| 1220 nM |  | O=C1NCc2c1cc(-c1ccc(F)cc1F)cc2N1CC(O)(C(F)(F)F)C1 [Compound A19, 6-(2,4-difluorophenyl)-4-(3-hydroxy-3-(trifluoromethyl)azetidin-1-yl)isoindolin-1-one] |
| 1540 nM |  | N#Cc1ccc(-c2cc(-c3ccc(F)cc3F)cc3c2CNC3=O)cn1 [Compound 33, 5-(6-(2,4-difluorophenyl)-1-oxoisoindolin-4-yl)picolinonitrile] |
| 2070 nM |  | O=C1NCc2c1cc(-c1ccc(F)cc1F)cc2-c1ccc(F)cc1F [Compound 4, 4,6-bis(2,4-difluorophenyl)isoindolin-1-one] |
| 5070 nM |  | N#Cc1ccc(-c2cc3c(c(-c4cnsc4)c2)CNC3=O)c(F)c1 [Compound 43, 3-fluoro-4-(7-(isothiazol-4-yl)-3-oxoisoindolin-5-yl)benzonitrile] |
| 329 nM |  | O=C1NCc2c1cc(-c1ccc(F)cc1F)cc2C1CCCCO1 (centres unmarked) [Compound B10, 6-(2,4-difluorophenyl)-4-(tetrahydro-2H-pyran-2-yl)isoindolin-1-one] |
| 3560 nM |  | COc1ccc(-c2cc3c(c(-c4cnsc4)c2)CNC3=O)c(F)c1 [Compound 44, 6-(2-fluoro-4-methoxyphenyl)-4-(isothiazol-4-yl)isoindolin-1-one] |
| 3230 nM |  | O=C1NCc2c1cc(-c1ccc(F)cc1F)cc2-c1ccsc1 [Compound 15, 6-(2,4-difluorophenyl)-4-(thiophen-3-yl)isoindolin-1-one] |
| 1120 nM |  | O=C1NCc2c1cc(-c1ccc(F)cc1F)cc2-c1ccnnc1 [Compound 12, 6-(2,4-difluorophenyl)-4-(pyridazin-4-yl)isoindolin-1-one] |
| 853 nM |  | O=C1NCc2c1cc(-c1ccc(F)cc1F)cc2C1=CCCCO1 [Compound B9, 6-(2,4-difluorophenyl)-4-(3,4-dihydro-2H-pyran-6-yl)isoindolin-1-one] |
|  | Inactive | Cc1cc(-c2cc3c(c(-c4cnsc4)c2)CNC3=O)c(F)cc1C#N [Compound 51, 5-fluoro-4-(7-(isothiazol-4-yl)-3-oxoisoindolin-5-yl)-2-methylbenzonitrile] |

| IC50 | Human mGlu2 GIRK IC50 (nM) | SMILES |
| --- | --- | --- |
| 488 nM |  | Cc1cc2n(n1)CCN2c1cc(-c2ccc(F)cc2F)cc2c1CNC2=O [Compound A23, 6-(2,4-difluorophenyl)-4-(6-methyl-2,3-dihydro-1H-imidazo[1,2-b]pyrazol-1-yl)isoindolin-1-one] |
| 424 nM |  | Cc1nn(C)c(C)c1-c1cc(C2=CCOCC2)cc2c1CNC2=O [Compound 92, 6-(3,6-dihydro-2H-pyran-4-yl)-4-(1,3,5-trimethyl-1H-pyrazol-4-yl)isoindolin-1-one] |
| > 10000 nM |  | N#Cc1c(F)ccc(-c2cc3c(c(-c4cnsc4)c2)CNC3=O)c1F [Compound 55, 2,6-difluoro-3-(7-(isothiazol-4-yl)-3-oxoisoindolin-5-yl)benzonitrile] |
| 3130 nM |  | O=C1NCc2c1cc(-c1ccc(F)cc1F)cc2-c1cnc(C(F)(F)F)nc1 [Compound 32, 6-(2,4-difluorophenyl)-4-(2-(trifluoromethyl)pyrimidin-5-yl)isoindolin-1-one] |
| 1700 nM |  | CC(C)n1nccc1-c1cc(C2CCOCC2)cc2c1CNC2=O [Compound 88, 4-(1-isopropyl-1H-pyrazol-5-yl)-6-(tetrahydro-2H-pyran-4-yl)isoindolin-1-one] |
| 3480 nM |  | COc1ccc(-c2cc3c(c(-c4cnsc4)c2)CNC3=O)c(F)c1F [Compound 49, 6-(2,3-difluoro-4-methoxyphenyl)-4-(isothiazol-4-yl)isoindolin-1-one] |
| > 10000 nM |  | O=Cc1ccc(-c2cc3c(c(-c4cnsc4)c2)CNC3=O)c(F)c1F [Compound 58, 2,3-difluoro-4-(7-(isothiazol-4-yl)-3-oxoisoindolin-5-yl)benzaldehyde] |
| 3170 nM |  | O=C1NCc2c1cc(-c1ccc(F)cc1F)cc2-c1cnn(C2CCCC2)c1 [Compound 16, 4-(1-cyclopentyl-1H-pyrazol-4-yl)-6-(2,4-difluorophenyl)isoindolin-1-one] |
| 292 nM |  | O=C1NCc2c(CN3CC4CCC(C3)O4)cc(-c3ccc(F)cc3F)cc21 [Compound B7, 4-((8-oxa-3-azabicyclo[3.2.1]octan-3-yl)methyl)-6-(2,4-difluorophenyl)isoindolin-1-one] |
| 195 nM |  | Cc1ncccc1-c1cc(C2=CCOCC2)cc2c1CNC2=O [Compound 97, 6-(3,6-dihydro-2H-pyran-4-yl)-4-(2-methylpyridin-3-yl)isoindolin-1-one] |
| 306 nM |  | O=C1NCc2c1cc(-c1ccc(F)cc1F)cc2N1C[C@H]2C[C@@H]1CO2 (racemic) [Compound A21, rac-4-((1R,4R)-2-oxa-5-azabicyclo[2.2.1]heptan-5-yl)-6-(2,4-difluorophenyl)isoindolin-1-one] |
| 1380 nM |  | O=C1NCc2c1cc(-c1ccc(F)cc1F)cc2-c1ccc2cnccc2c1 [Compound 23, 6-(2,4-difluorophenyl)-4-(isoquinolin-6-yl)isoindolin-1-one] |
|  | Inactive | COc1cc(F)c(-c2cc3c(c(-c4cnsc4)c2)CNC3=O)cc1F [Compound 52, 6-(2,5-difluoro-4-methoxyphenyl)-4-(isothiazol-4-yl)isoindolin-1-one] |
| 193 nM |  | O=C1NCc2c(CN3CC(O)(C(F)(F)F)C3)cc(-c3ccc(F)cc3F)cc21 [Compound B8, 6-(2,4-difluorophenyl)-4-((3-hydroxy-3-(trifluoromethyl)azetidin-1-yl)methyl)isoindolin-1-one] |
| 340 nM |  | Cc1cnn(C)c1-c1cc(C2=CCOCC2)cc2c1CNC2=O [Compound 94, 6-(3,6-dihydro-2H-pyran-4-yl)-4-(1,4-dimethyl-1H-pyrazol-5-yl)isoindolin-1-one] |
|  | Inactive | O=C1NCc2c1cc(-c1ccc(F)cc1F)cc2-c1cnn(C2CCCCC2)c1 [Compound 21, 4-(1-cyclohexyl-1H-pyrazol-4-yl)-6-(2,4-difluorophenyl)isoindolin-1-one] |
| 985 nM |  | Cc1nn(C)c(C)c1-c1cc(C2CCOCC2)cc2c1CNC2=O [Compound 98, 6-(tetrahydro-2H-pyran-4-yl)-4-(1,3,5-trimethyl-1H-pyrazol-4-yl)isoindolin-1-one] |

Source: US20260226019A1, “NEGATIVE ALLOSTERIC MODULATORS OF METABOTROPIC GLUTAMATE RECEPTOR 2” (Vanderbilt University, priority 2023, published 2026)
